The source of these data is patent US20220324865A1 (Bayer Aktiengesellschaft, priority 2018, published 2022).

This experiment has as its target T1, human EP3 receptor (Homo sapiens, UniProt P43115).
T1 construct: expressed in transfected cells; host or cells: CHO K1 (Chinese Hamster Ovary), stably co-transfected with Galpha16 and mitochondrial clytin
T1 sequence (P43115 1-390): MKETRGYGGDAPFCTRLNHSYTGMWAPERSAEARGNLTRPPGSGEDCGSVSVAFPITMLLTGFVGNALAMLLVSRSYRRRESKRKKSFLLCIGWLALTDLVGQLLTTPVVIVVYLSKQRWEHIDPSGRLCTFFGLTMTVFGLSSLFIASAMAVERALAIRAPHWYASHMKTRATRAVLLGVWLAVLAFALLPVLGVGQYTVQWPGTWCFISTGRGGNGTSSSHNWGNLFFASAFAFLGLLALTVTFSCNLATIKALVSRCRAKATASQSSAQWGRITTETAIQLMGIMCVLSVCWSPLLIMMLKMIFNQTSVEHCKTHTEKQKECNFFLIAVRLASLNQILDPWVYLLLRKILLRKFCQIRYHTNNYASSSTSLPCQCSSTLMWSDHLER
Put plainly: Cellular in vitro assay for determining EP3 receptor activity (human EP3 cell line, sulprostone-stimulated calcium luminescence). The experiment is classed as cell-based. The conditions noted are these: CHO cells expressing human EP3 and mitochondrial Clytin; antagonist mode, sulprostone at EC50; read-out: EP3 CHO mtCLY ANTAG IC50. Summed up: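 Antagonist activity was measured as inhibition of the luminescent calcium signal elicited by EC50 sulprostone, following 10 min compound pretreatment. The cell line was recombinant CHO K1 co-expressing human EP3, Gα16 and the photoprotein Clytin, reconstituted with coelenterazine.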
Regarding `Cc1cccc2ncc(-c3cn4nc(C(=O)NCC(C)Cn5cccn5)c(C(C)C)c4c(=O)[nH]3)cc12` (stereo not shown) [Example 4-30, 3-Isopropyl-N-[2-methyl-3-(1H-pyrazol-1-yl)propyl]-6-(5-methylquinolin-3-yl)-4-oxo-4,5-dihydropyrazolo[1,5-a]pyrazine-2-carboxamide], the IC50 came to 2.7 nM. The result for `COc1ccc(C2(NC(=O)c3nn4cc(-c5ccc(C)c(C)c5)[nH]c(=O)c4c3C3CC3)CN(C)C2)cc1` [6-427] reads 5.15 nM.

For `Cc1cccc2ncc(-c3cn4nc(C(=O)NC(C)c5ccccn5)c(C(C)C)c4c(=O)[nH]3)cc12` (stereo not shown) [Example 4-54, 3-Isopropyl-6-(5-methyl-3-quinolyl)-4-oxo-N-[1-(2-pyridyl)ethyl]-5H-pyrazolo[1,5-a]pyrazine-2-carboxamide], the IC50 came to 2 nM.

For the compound `Cc1ccc(-c2cn3nc(C(=O)N[C@@H](c4ccc(F)cc4)C(C)(C)O)cc3c(=O)[nH]2)cc1F` [6-644], the IC50 is 6.55 nM. For `Cc1ccc(-c2cn3nc(C(=O)NCCN(CC(F)F)C4CC4)c(C4CC4)c3c(=O)[nH]2)cc1C` [6-460] the value was 1.7 nM; for `Cc1cnn(C(CNC(=O)c2cc3c(=O)[nH]c(-c4ccc5ccccc5c4)cn3n2)C(C)C)c1` (stereo not shown) [Example 2-12, N-[3-Methyl-2-(4-methyl-1H-pyrazol-1-yl)butyl]-6-(2-naphthyl)-4-oxo-4,5-dihydropyrazolo[1,5-a]pyrazine-2-carboxamide], 4.65 nM.

On to `CCC1(NC(=O)c2cc3c(=O)[nH]c(-c4ccc5ccccc5c4)cn3n2)CN(C(=O)OC(C)(C)C)C1` [Example 1-5, tert.-Butyl 3-ethyl-3-({[6-(naphthalen-2-yl)-4-oxo-4,5-dihydropyrazolo[1,5-a]pyrazin-2-yl]carbonyl}-amino)azetidine-1-carboxylate], for which the IC50 was 2.7 nM. The result for `COc1cc(-c2cn3nc(C(=O)N[C@@H](c4ccc(F)cc4)C(C)(C)O)c(C4CC4)c3c(=O)[nH]2)ccc1Cl` [6-484] reads 1.8 nM. For `COc1ccc(C(NC(=O)c2nn3cc(-c4cnc5cccc(C)c5c4)[nH]c(=O)c3c2C(C)C)C2CC2)cc1` (stereo not shown) [Example 4-78, N-[Cyclopropyl(4-methoxyphenyl)methyl]-3-isopropyl-6-(5-methyl-3-quinolyl)-4-oxo-5H-pyrazolo[1,5-a]pyrazine-2-carboxamide], the IC50 was determined as 1.55 nM. The result for `C[C@@H](NC(=O)c1cc2c(=O)[nH]c(-c3cnc4ccccc4c3)cn2n1)c1ccc(F)cc1` [6-62] reads 3.13 nM; that for `CC(C)(O)[C@@H](NC(=O)c1nn2cc(-c3ccc4c(c3)OCCO4)[nH]c(=O)c2c1C1CC1)c1ccc(F)cc1` [6-466], 5.4 nM; that for `Cc1cccc2ncc(-c3cn4nc(C(=O)N[C@H](CCO)c5ccccc5)c(C(C)C)c4c(=O)[nH]3)cc12` [Example 1-88, N-[(1R)-3-Hydroxy-1-phenylpropyl]-6-(5-methylquinolin-3-yl)-4-oxo-3-(propan-2-yl)-4,5-dihydropyrazolo[1,5-a]pyrazine-2-carboxamide], 1.35 nM. The result for `CCCc1c(C(=O)NC2(c3ccc(F)cc3)CN(C)C2)nn2cc(-c3ccc(C)c(C)c3)[nH]c(=O)c12` [6-616] reads 0.78 nM; that for `CCc1ccc(C(C)NC(=O)c2nn3c(C)c(-c4ccc5ccccc5c4)[nH]c(=O)c3c2C)cc1` (stereo not shown) [Example 3-26, N-[1-(4-Ethylphenyl)ethyl]-3,7-dimethyl-6-(2-naphthyl)-4-oxo-5H-pyrazolo[1,5-a]pyrazine-2-carboxamide], 4.15 nM; that for `Cc1cnn(CC(C)NC(=O)c2cc3c(=O)[nH]c(-c4ccc5ccccc5c4)cn3n2)c1` (stereo not shown) [Example 2-29, N-[1-(4-Methyl-1H-pyrazol-1-yl)propan-2-yl]-6-(2-naphthyl)-4-oxo-4,5-dihydropyrazolo[1,5-a]pyrazine-2-carboxamide], 7.25 nM. As to `CN1CCC(NC(=O)c2nn3cc(-c4ccc5ccccc5c4)[nH]c(=O)c3c2C(F)(F)F)(c2ccc(F)cc2)CC1` [Example 1-116, N-[4-(4-Fluorophenyl)-1-methylpiperidin-4-yl]-6-(naphthalen-2-yl)-4-oxo-3-(trifluoromethyl)-4,5-dihydropyrazolo[1,5-a]pyrazine-2-carboxamide], the IC50 was 9.55 nM.

For the compound `Cc1cccc2ncc(-c3cn4nc(C(=O)NCc5cnn(C)c5)c(C(C)C)c4c(=O)[nH]3)cc12` [Example 4-37, N-[(1-Methyl-1H-pyrazol-4-yl)methyl]-6-(5-methylquinolin-3-yl)-4-oxo-3-(propan-2-yl)-4,5-dihydropyrazolo[1,5-a]pyrazine-2-carboxamide], the IC50 came to 2 nM.

As for `Cc1c(C(=O)NCC(C)Cn2cccn2)nn2c(C)c(-c3ccc4ccccc4c3)[nH]c(=O)c12` (stereo not shown) [Example 3-7, 3,7-Dimethyl-N-[2-methyl-3-(1H-pyrazol-1-yl)propyl]-6-(2-naphthyl)-4-oxo-4,5-dihydropyrazolo[1,5-a]pyrazine-2-carboxamide], the IC50 turned out to be 1.34 nM. With `Cc1c(C(=O)N[C@@H](CO)c2ccccc2)nn2c(C)c(-c3ccc4ccccc4c3)[nH]c(=O)c12` [Example 3-71, N-[(1R)-2-Hydroxy-1-phenylethyl]-3,7-dimethyl-6-(naphthalen-2-yl)-4-oxo-4,5-dihydropyrazolo[1,5-a]pyrazine-2-carboxamide], the IC50 came to 9.45 nM. For `COc1ccc(C(CCO)NC(=O)c2cc3c(=O)[nH]c(-c4ccc(C)c(C)c4)cn3n2)cc1` (racemic) [Example 1-11, rac-6-(3,4-Dimethylphenyl)-N-[3-hydroxy-1-(4-methoxyphenyl)propyl]-4-oxo-5H-pyrazolo[1,5-a]-pyrazine-2-carboxamide] the value was 2.15 nM. For `COc1ccc(C2(NC(=O)c3cc4c(=O)[nH]c(-c5ccc6ccccc6c5)cn4n3)CN(C(=O)OC(C)(C)C)C2)cc1` [Example 1-57, tert.-Butyl 3-(4-methoxyphenyl)-3-({[6-(naphthalen-2-yl)-4-oxo-4,5-dihydropyrazolo[1,5-a]pyrazin-2-yl]carbonyl}amino)azetidine-1-carboxylate] the value was 4.9 nM. For `O=C(N[C@@H](c1ccc(F)cc1)C(F)(F)CO)c1nn2cc(-c3cc(F)c(Cl)cc3F)[nH]c(=O)c2c1C1CC1` [6-585] the value was 3 nM; for `Cc1cccc2ncc(-c3cn4nc(C(=O)N[C@@H](c5ccc(F)cc5)C(C)(C)O)c(C(F)(F)F)c4c(=O)[nH]3)cc12` [6-546], 3.13 nM. Consider `Cc1nn(C)c(C)c1C(C)NC(=O)c1cc2c(=O)[nH]c(-c3ccc4ccccc4c3)cn2n1` (stereo not shown) [Example 2-21, 6-(2-Naphthyl)-4-oxo-N-[1-(1,3,5-trimethyl-1H-pyrazol-4-yl)ethyl]-4,5-dihydropyrazolo[1,5-a]pyrazine-2-carboxamide], for which the IC50 turned out to be 4.45 nM.

Consider `Cc1cc(-c2cn3nc(C(=O)NC4(c5ccc(F)cc5)CN(C)C4)c(C(F)(F)F)c3c(=O)[nH]2)ccc1Cl` [6-207], for which the IC50 was 4.35 nM. For `CC(C)(O)[C@@H](NC(=O)c1nn2cc(-c3ccc(Cl)c(Cl)c3)[nH]c(=O)c2c1C1CC1)c1ccc(F)cc1` [Example 1-168, 3-Cyclopropyl-6-(3,4-dichlorophenyl)-N-[(1S)-1-(4-fluorophenyl)-2-hydroxy-2-methylpropyl]-4-oxo-4,5-dihydropyrazolo[1,5-a]pyrazine-2-carboxamide] the value was 1.9 nM. For `CC(C)c1c(C(=O)N[C@H](CCO)c2ccc(F)cc2)nn2cc(-c3ccc(Cl)cc3)[nH]c(=O)c12` [6-670] the value was 2 nM; for `C[C@H](NC(=O)c1nn2cc(-c3ccc(Cl)c(F)c3)[nH]c(=O)c2c1C1CCC1)C1CC1` [6-570], 1.3 nM.

Consider `COC(=O)C(NC(=O)c1cc2c(=O)[nH]c(-c3ccc4ccccc4c3)cn2n1)c1ccc(F)cc1` (stereo not shown) [6-17], for which the IC50 worked out at 3.75 nM. `Cc1ccc(-c2cn3nc(C(=O)NCC(O)C(F)(F)F)c(C(F)(F)F)c3c(=O)[nH]2)cc1C` (racemic) [6-115]: the IC50 came out at 0.95 nM. The result for `Cc1cccc2ncc(-c3cn4nc(C(=O)N[C@H]5c6ccccc6C[C@H]5O)c(C(C)C)c4c(=O)[nH]3)cc12` [Example 4-69, N-[(7S,2R)-2-Hydroxy-2,3-dihydro-1H-inden-1-yl]-6-(5-methylquinolin-3-yl)-4-oxo-3-(propan-2-yl)-4,5-dihydropyrazolo[1,5-a]pyrazine-2-carboxamide] reads 2 nM; that for `Cc1ccc(-c2cn3nc(C(=O)N[C@@H](c4ccc(F)cc4)C(C)(C)O)c(C(F)(F)F)c3c(=O)[nH]2)cc1Cl` [Example 1-151, 6-(3-Chloro-4-methylphenyl)-N-[(1S)-1-(4-fluorophenyl)-2-hydroxy-2-methylpropyl]-4-oxo-3-(trifluoromethyl)-4,5-dihydropyrazolo[1,5-a]pyrazine-2-carboxamide], 1.15 nM; that for `COc1ccc(C(C)NC(=O)c2nn3cc(-c4cnc5cccc(C)c5c4)[nH]c(=O)c3c2C(C)C)cc1` (stereo not shown) [Example 4-7, 3-Isopropyl-N-[1-(4-methoxyphenyl)ethyl]-6-(5-methyl-3-quinolyl)-4-oxo-5H-pyrazolo[1,5-a]pyrazine-2-carboxamide], 1.14 nM.

For `Cc1cc(-c2cn3nc(C(=O)NC(c4ccc(F)cc4)C4(O)CC4)c(C4CC4)c3c(=O)[nH]2)ccc1F` (single isomer, unassigned) [6-651], the IC50 is 1 nM.

Usually IC50 stands for the concentration needed to halve the response being measured.
